Legend:
PLK3 (h) = PLK3 (h) (Homo sapiens, UniProt Q9H4B4); assay: PLK3 human kinase inhibition, SPA; format: biochemical; settings: read-out: PLK3 pIC50 (converted)
How it was run: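 Radiometric scintillation proximity format at pH 8.0 (Hepes, MnCl2, DTT). The 2 μM biotin-peptide substrate is phosphorylated by PLK3 (h) (30 μg/ml) using 0.1 μM ATP traced with 33P, for 20 min at room temperature. EDTA stop; phosphopeptide captured on streptavidin beads and imaged.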

U87-MG = assay: Cellular proliferation assay (Alamar blue), U87-MG; format: cell-based; settings: Homo sapiens, U-87 MG; 10% FCS; 72 hours with compound; Alamar blue 6 h; read-out: U87-MG (cellular proliferation assay, Table 4) (converted)
How it was run: (§1)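 Alamar blue conversion, quantified fluorimetrically (544 nm/590 nm), gave viable cell number relative to untreated controls; dye time 4 h for HCT-116, 6 h for U87-MG, 24 h for A2780 and MDA-MB-231. Compound exposure lasted 72 h, after 24 h pre-seeding, with 10% FCS, 37 °C, 5% CO2.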

AuroraB (h) = AuroraB (h) (Homo sapiens, UniProt Q96GD4); assay: Aurora-B human kinase inhibition, SPA; format: biochemical; settings: read-out: AuroraB pIC50 (converted)
AuroraB (h), sequence (Q96GD4 whole entry): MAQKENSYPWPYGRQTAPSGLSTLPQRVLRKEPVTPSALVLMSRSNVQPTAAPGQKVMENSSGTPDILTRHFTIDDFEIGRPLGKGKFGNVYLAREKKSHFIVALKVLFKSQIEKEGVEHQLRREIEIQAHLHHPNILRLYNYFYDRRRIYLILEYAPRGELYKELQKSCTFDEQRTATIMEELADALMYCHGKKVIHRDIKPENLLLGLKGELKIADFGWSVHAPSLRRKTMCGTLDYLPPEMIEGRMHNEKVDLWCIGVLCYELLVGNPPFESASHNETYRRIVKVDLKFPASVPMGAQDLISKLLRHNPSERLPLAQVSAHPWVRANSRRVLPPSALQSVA
How it was run: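 AuroraB (0.5 μg/ml) phosphorylates 3 μM biotin-peptide using 0.5 μM ATP spiked with 33P-ATP in Hepes pH 7.5 with 3 mM MgCl2 and MnCl2, for 60 min at room temperature. EDTA stop solution carries streptavidin scintillant beads, and the captured radiolabel is imaged.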

HCT-116 = assay: Cellular proliferation assay (Alamar blue), HCT-116; format: cell-based; settings: Homo sapiens, 10% FCS, 72 hours with compound, Alamar blue 4 h
How it was run: as §1

A2780 = assay: Cellular proliferation assay (Alamar blue), A2780; format: cell-based; settings: Homo sapiens, 10% FCS, 72 hours with compound, Alamar blue 24 h, read-out: A2780 (cellular proliferation assay, Table 4) (converted)
How it was run: as §1

GSK3β (h) = GSK3β (h) (Homo sapiens, UniProt P49841); assay: GSK-3β human kinase inhibition, SPA; format: biochemical; settings: read-out: GSK3b pIC50 (converted)
GSK3β (h), sequence (P49841 whole entry): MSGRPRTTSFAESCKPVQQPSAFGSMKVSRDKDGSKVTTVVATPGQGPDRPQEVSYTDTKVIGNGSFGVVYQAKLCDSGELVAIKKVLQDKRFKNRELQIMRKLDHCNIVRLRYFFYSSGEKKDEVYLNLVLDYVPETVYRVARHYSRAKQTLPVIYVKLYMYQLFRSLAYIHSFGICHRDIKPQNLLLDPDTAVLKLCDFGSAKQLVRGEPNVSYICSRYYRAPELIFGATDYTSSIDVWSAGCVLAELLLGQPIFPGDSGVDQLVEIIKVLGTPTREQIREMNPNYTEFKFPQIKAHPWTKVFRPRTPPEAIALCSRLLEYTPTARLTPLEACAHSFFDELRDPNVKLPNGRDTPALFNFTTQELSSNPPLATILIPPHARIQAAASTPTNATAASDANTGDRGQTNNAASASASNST
How it was run: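 Radiometric: 33P-labelled peptide captured on streptavidin SPA beads after EDTA stop and imaged on Leadseeker. Reaction ran 1 h at RT, 1 μM cold ATP with 2 nM [γ-33P]ATP, 1 μM biotin-peptide substrate, human GSK3β 1 μg/ml, pH 7.4 Tris buffer.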

H1299 = assay: Cellular proliferation assay (Alamar blue), H1299; format: cell-based; settings: Homo sapiens, NCI-H1299; 10% FCS; 72 hours with compound; Alamar blue 4 h
How it was run: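 This proliferation assay on NCI-H1299 cells used an initial 24-hour compound-free incubation after seeding, followed by 72 hours of compound treatment with 10% FCS serum at 37° C. and 5% (v/v) CO2. Viable cells were quantified by a 4 h Alamar blue incubation and fluorescent plate reading at 544 nm/590 nm, and effects were expressed relative to control cells.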

CDK1/CyclinB (h) = CDK1/CyclinB (h) (Homo sapiens, UniProt P06493); assay: CDK1/CyclinB human kinase inhibition, Invitrogen's FRET assay (Z'lyte); format: biochemical; settings: read-out: CDK1 pIC50 (converted)
CDK1/CyclinB (h), sequence (P06493 whole entry): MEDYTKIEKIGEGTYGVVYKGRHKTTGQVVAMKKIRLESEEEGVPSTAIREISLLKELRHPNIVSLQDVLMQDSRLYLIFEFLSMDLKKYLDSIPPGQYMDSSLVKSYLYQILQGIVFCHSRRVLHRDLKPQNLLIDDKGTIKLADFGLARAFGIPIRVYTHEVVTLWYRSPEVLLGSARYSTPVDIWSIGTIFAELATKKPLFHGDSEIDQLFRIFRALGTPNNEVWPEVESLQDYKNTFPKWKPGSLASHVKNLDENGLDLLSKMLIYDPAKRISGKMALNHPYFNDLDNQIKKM
CDK1/CyclinB (h), sequence (P14635 whole entry partner): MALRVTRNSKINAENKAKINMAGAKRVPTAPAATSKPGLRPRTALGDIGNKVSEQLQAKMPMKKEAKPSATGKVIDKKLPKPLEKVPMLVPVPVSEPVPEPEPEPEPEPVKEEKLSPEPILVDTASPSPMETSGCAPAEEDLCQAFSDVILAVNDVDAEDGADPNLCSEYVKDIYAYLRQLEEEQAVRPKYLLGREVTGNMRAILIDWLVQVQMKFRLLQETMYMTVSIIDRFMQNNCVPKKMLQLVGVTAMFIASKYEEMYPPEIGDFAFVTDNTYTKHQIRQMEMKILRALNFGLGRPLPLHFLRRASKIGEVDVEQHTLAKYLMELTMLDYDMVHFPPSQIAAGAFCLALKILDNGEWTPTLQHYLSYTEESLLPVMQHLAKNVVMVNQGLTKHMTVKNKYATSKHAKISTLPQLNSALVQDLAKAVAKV
How it was run: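 Read-out is the 460 nm/538 nm emission ratio (390 nm excitation) after a 60 min protease development step. Before that, 10 μM ATP and 2 μM Z'lyte Ser/Thr peptide 12 react 60 min at room temperature with 0.2 μg/ml human CDK1/CyclinB in Hepes pH 7.5 containing MgCl2, EGTA and Brij-35.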

PLK1 T210D (h) = PLK1 T210D (h) (Homo sapiens, UniProt P53350, T210D); assay: PLK1 human kinase inhibition, SPA; format: biochemical; settings: read-out: PLK1 pIC50 (converted)
PLK1 T210D (h), sequence (P53350 whole entry T210D): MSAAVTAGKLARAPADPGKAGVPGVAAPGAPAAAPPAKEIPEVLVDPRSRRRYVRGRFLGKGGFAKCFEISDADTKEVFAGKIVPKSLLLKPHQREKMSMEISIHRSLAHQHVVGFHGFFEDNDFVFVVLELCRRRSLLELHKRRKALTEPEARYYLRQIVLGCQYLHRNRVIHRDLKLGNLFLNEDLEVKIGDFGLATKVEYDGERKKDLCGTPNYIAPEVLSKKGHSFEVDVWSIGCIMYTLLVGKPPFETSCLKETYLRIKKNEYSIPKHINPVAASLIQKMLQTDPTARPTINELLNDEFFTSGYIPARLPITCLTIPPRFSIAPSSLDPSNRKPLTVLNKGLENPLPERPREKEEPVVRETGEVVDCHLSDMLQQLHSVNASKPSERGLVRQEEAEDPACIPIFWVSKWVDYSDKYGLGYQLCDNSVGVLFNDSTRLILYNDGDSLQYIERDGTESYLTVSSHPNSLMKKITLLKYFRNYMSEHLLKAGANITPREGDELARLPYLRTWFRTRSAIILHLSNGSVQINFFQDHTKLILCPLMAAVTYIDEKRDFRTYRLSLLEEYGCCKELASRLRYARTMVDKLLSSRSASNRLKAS
How it was run: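 Kinase incubated 40 min at room temperature with 0.1 μM ATP (2 nM [γ-33P]ATP tracer), 2 μM biotinylated peptide, pH 8.0 Hepes buffer with 2 mM MnCl2 and 1 mM DTT; enzyme at 0.125 ng/ml. Stopped with EDTA; 33P-peptide bound to streptavidin scintillant beads and imaged.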

PLK3 (h), sequence (Q9H4B4 whole entry): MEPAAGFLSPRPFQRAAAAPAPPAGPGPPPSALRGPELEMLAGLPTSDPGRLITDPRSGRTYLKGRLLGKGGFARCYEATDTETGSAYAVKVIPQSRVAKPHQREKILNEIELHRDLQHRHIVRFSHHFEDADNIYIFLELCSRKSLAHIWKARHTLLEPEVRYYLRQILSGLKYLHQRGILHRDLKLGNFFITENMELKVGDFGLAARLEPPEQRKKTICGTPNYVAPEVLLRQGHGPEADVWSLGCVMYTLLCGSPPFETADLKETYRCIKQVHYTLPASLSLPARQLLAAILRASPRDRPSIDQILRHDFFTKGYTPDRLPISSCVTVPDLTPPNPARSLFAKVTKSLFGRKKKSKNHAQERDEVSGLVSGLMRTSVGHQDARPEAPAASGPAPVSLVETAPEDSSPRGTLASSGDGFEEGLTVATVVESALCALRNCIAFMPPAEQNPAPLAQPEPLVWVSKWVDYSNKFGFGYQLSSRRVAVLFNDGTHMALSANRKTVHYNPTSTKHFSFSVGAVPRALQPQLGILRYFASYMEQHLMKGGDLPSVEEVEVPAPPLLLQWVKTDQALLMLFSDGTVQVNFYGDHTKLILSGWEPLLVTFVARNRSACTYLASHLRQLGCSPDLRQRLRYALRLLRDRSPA

| SMILES | IC50 (PLK3 (h)) [µM] | IC50 (U87-MG) [µM] | IC50 (AuroraB (h)) [µM] | IC50 (HCT-116) [µM] | IC50 (A2780) [µM] | IC50 (GSK3β (h)) [µM] | IC50 (H1299) [µM] | IC50 (CDK1/CyclinB (h)) [µM] | IC50 (PLK1 T210D (h)) [µM] |
| --- | --- | --- | --- | --- | --- | --- | --- | --- | --- |
| COc1ccc2cc1CN(C)CCCNC(=O)CN1CCN(CC1)Cc1cccc(c1)Nc1nccc-2n1 [Compound 146] | > 10 | > 10 | > 10 | > 10 | > 10 | > 10 | > 10 | > 10 | > 10 |
| O=C1NCCCOc2cccc(c2)-c2ccnc(n2)Nc2ccc(N3CCOCC3)c(c2)CN[C@H]1CO [Compound 89] | > 10 | > 10 | > 10 | 4.37 | 6.76 | 0.589 | > 10 | > 10 | > 10 |
| O=C1NCCCNCc2ccc(cc2)-c2ccnc(n2)Nc2ccc(N3CCOCC3)c(c2)CN2C[C@H](O)C[C@@H]12 [Compound 169] | > 10 | > 10 | > 10 | > 10 | > 10 | > 10 | > 10 | > 10 | > 10 |
| COc1ccc2cc1CN(C)CCNC(=O)C1CCN(CC1)Cc1cccc(c1)Nc1nccc-2n1 [Compound 83] | > 10 | > 10 | > 10 | > 10 | > 10 | > 10 | > 10 | > 10 | > 10 |
| COc1ccc2cc1CN(C)CCNC(=O)CN1CCN(CC1)Cc1cccc(c1)Nc1nccc-2n1 [Compound 147] | > 10 | > 10 | > 10 | > 10 | > 10 | > 10 | > 10 | > 10 | > 10 |
| CN1CCCNC(=O)[C@H](CO)NCc2cccc(c2)Nc2nccc(n2)-c2ccc(cc2)C1 [Compound 113] | > 10 | > 10 | > 10 | > 10 | > 10 | > 10 | > 10 | > 10 | > 10 |
| COc1ccc2cc1CN(C)CCCNC(=O)CN1CCN(CC1)Cc1cc(Br)cc(c1)Nc1nccc-2n1 [Compound 144] | > 10 | 9.33 | 7.94 | > 10 | > 10 | > 10 | > 10 | > 10 | > 10 |
| COc1ccc2cc1CNCCNC(=O)[C@@H]1CCCN1Cc1cc(ccc1N1CCOCC1)Nc1nccc-2n1 [Compound 178] | > 10 | 8.91 | > 10 | > 10 | > 10 | > 10 | > 10 | > 10 | > 10 |
| O=C1NCc2cccc(c2)-c2ccnc(n2)Nc2ccc(N3CCOCC3)c(c2)CN2CCC[C@@H]12 [Compound 1] | > 10 | 6.76 | 4.37 | 3.8 | 2.34 | 0.724 | 6.92 | 4.17 | > 10 |
| CN1CCNC(=O)C2CCN(CC2)Cc2cccc(c2)Nc2nccc(n2)-c2ccc(cc2)C1 [Compound 82] | > 10 | > 10 | > 10 | > 10 | > 10 | > 10 | > 10 | > 10 | > 10 |
| COc1ccc2cc1CN(C)CCCNC(=O)C1CCN(CC1)Cc1cccc(c1)Nc1nccc-2n1 [Compound 81] | > 10 | > 10 | > 10 | > 10 | > 10 | > 10 | > 10 | > 10 | > 10 |
| O=C1NCc2cccc(c2)-c2ccnc(n2)Nc2cc(CNC3CCOCC3)cc(c2)CN2CCC[C@@H]12 [Compound 29] | > 10 | 0.457 | > 10 | 0.646 | 0.708 | 0.112 | 3.8 | 0.676 | > 10 |
| O=C1NCCCOc2ccc(cc2)-c2ccnc(n2)Nc2ccc(N3CCOCC3)c(c2)CN2CCC[C@@H]12 [Compound 7] | > 10 | 4.37 | 6.31 | 6.03 | > 10 | 0.372 | > 10 | 3.47 | > 10 |
| O=C1NCc2cccc(c2)-c2ccnc(n2)Nc2cc(CNC3CCCCC3)cc(c2)CN2CCC[C@@H]12 [Compound 36] | > 10 | 0.282 | 8.13 | 0.372 | 0.55 | 0.129 | 3.39 | 0.457 | > 10 |
| CN1CCNC(=O)C2CCN(CC2)Cc2cc(Br)cc(c2)Nc2nccc(n2)-c2ccc(cc2)C1 [Compound 60] | > 10 | 2.57 | 6.31 | 1.58 | 7.59 | 2.75 | > 10 | > 10 | > 10 |
| O=C1NCc2cccc(c2)-c2ccnc(n2)Nc2cc(CN3CCOCC3)cc(c2)CN2CCC[C@@H]12 [Compound 22] | > 10 | 0.234 | 10.2 | 0.174 | 0.437 | 0.0309 | 2.75 | 0.251 | > 10 |
| COc1ccc2cc1CN(C)CCNC(=O)CN1CCN(CC1)Cc1cc(cc(N3CCOCC3)c1)Nc1nccc-2n1 [Compound 145] | > 10 | > 10 | > 10 | > 10 | > 10 | > 10 | > 10 | > 10 | > 10 |
| COc1ccc2cc1CN(C)CCCNC(=O)CN1CCN(CC1)Cc1cc(cc(N3CCOCC3)c1)Nc1nccc-2n1 [Compound 141] | > 10 | 5.89 | > 10 | 2.29 | 8.91 | > 10 | > 10 | > 10 | > 10 |
| COc1ccc2cc1CN(C)CCCNC(=O)[C@@H]1CCCN1Cc1cccc(c1)Nc1nccc-2n1 [Compound 180] | > 10 | > 10 | > 10 | > 10 | > 10 | > 10 | > 10 | > 10 | > 10 |
| CN1CCCNC(=O)C2CCN(CC2)Cc2cc(cc(N3CCOCC3)c2)Nc2nccc(n2)-c2ccc(cc2)C1 [Compound 72] | > 10 | 6.17 | > 10 | 3.39 | > 10 | > 10 | > 10 | > 10 | > 10 |
| O=C1NCCCOc2cccc(c2)-c2ccnc(n2)Nc2ccc(N3CCOCC3)c(c2)CN2CCC[C@@H]12 [Compound 96] | > 10 | 4.17 | > 10 | 5.37 | 6.46 | 2.82 | > 10 | > 10 | > 10 |
| COc1ccc2cc1CN(C)CCNC(=O)C1CCN(CC1)Cc1cc(cc(NC(C)C)c1)Nc1nccc-2n1 [Compound 75] | > 10 | 5.13 | > 10 | 7.24 | > 10 | > 10 | > 10 | > 10 | > 10 |

Source: patent publication US8609836B2, “4-aryl-2-anilino-pyrimidines” (Janssen Pharmaceutica NV, priority 2008, dated 2013)
